The source made the active and inactive calls. The rule behind the calls is not given here.

In one series the test system is K562. Kind of series: Antiproliferative activity against human K562 cells assessed as inhibition of cell growth. In kind it is functional.
The nature of series [1]: Antiproliferative activity against HUVEC assessed as inhibition of cell growth. In kind it is cell-based. As to conditions: human, HUVEC cells.
A further series relates to HeLa. Kind of series: Cytotoxicity against human HeLa cells. In kind it is functional.
Another series concerns Bacillus subtilis. Briefly: Antimicrobial activity against Bacillus subtilis 6633 B1 by agar diffusion assay. In kind it is functional, organism-based. A general note: In agar diffusion tests the substance spreads into inoculated agar from a disc or well.
Series [2] deals with Staphylococcus aureus. Kind of series: Antimicrobial activity against Staphylococcus aureus 511 B3 by agar diffusion assay. In kind it is functional, organism-based.
The test system of the next series is Escherichia coli. Briefly: Antimicrobial activity against Escherichia coli 458 B4 by agar diffusion assay. In kind it is functional, organism-based.
For a further series, the system named is Pseudomonas aeruginosa. Kind of series: Antimicrobial activity against Pseudomonas aeruginosa SG137 B7 by agar diffusion assay. Format: functional, organism-based.
Series [3] concerns Staphylococcus aureus. Kind of series: Antimicrobial activity against methicillin-resistant Staphylococcus aureus 134/93R9 by agar diffusion assay. Format: functional, organism-based.
The next series relates to Enterococcus faecalis. Kind of series: Antimicrobial activity against vancomycin-resistant Enterococcus faecalis 1528 R10 by agar diffusion assay. In kind it is functional, organism-based.
The next series relates to Mycolicibacterium vaccae. Kind of series: Antimicrobial activity against Mycobacterium vaccae 10670 M4 by agar diffusion assay. Format: functional, organism-based.
The subject of series [4] is Sporobolomyces salmonicolor. Briefly: Antimicrobial activity against Sporidiobolus salmonicolor 549 H4 by agar diffusion assay. In kind it is functional, organism-based.
A further series relates to Candida albicans. Briefly: Antimicrobial activity against Candida albicans H8 by agar diffusion assay. Format: functional, organism-based.
For another series, the system named is Penicillium chrysogenum. Kind of series: Antimicrobial activity against Penicillium notatum JP36 P1 by agar diffusion assay. Format: functional, organism-based.
The test system of another series is THP-1. Kind of series: Antiproliferative activity against human THP1 cells assessed as inhibition of cell growth. Format: functional.
The test system of a further series is Raji. Kind of series: Antiproliferative activity against human Raji cells assessed as inhibition of cell growth. Format: functional.
For the next series, the system named is HEK293. Briefly: Antiproliferative activity against human HEK293 cells assessed as inhibition of cell growth. Format: functional.
A further series deals with HepG2. Kind of series: Antiproliferative activity against human HepG2 cells assessed as inhibition of cell growth. In kind it is functional.
The test system of a further series is MCF7. Kind of series: Antiproliferative activity against human MCF7 cells assessed as inhibition of cell growth. Format: functional.

Turning to `NC(=O)C1=C(N)[C@@H](O)[C@H](O)[C@@H](Nc2cc3nc4cc(CO)ccc4oc-3cc2=O)C1=O` [PITUCAMYCIN], the GI50 was 27.6 µM with K562 and 36.6 µM in [1]. This compound yielded a half-maximal cytotoxic concentration (CC50) in the series on HeLa of 74.8 µM. The result in the series with Bacillus subtilis, in the series with Staphylococcus aureus [2], in the series with Escherichia coli, with Pseudomonas aeruginosa, in the series with Staphylococcus aureus [3] and in the series on Enterococcus faecalis was inactive. In addition, the outcome (with Mycolicibacterium vaccae; in [4]; in the series on Candida albicans; with Penicillium chrysogenum) was inactive.
With `CC(=O)N[C@@H](CSc1c2nc3cc(C(=O)O)ccc3oc-2cc(=O)c1N)C(=O)O` [GRIXAZONE B], the GI50 in the series on K562 was above 76.4 µM; in series [1], above 120 µM. Also, in the series with HeLa, the CC50 is above 120 µM.
Regarding `O=C(CO)Nc1cc2nc3cc(CO)ccc3oc-2cc1=O` [CHANDRANANIMYCIN D], the concentration for 50% growth inhibition (GI50) with K562 was determined as 16.6 µM; in series [1] it was 5.3 µM; with THP-1 it was 27.6 µM; with Raji, 9.6 µM; with HEK293, 10.3 µM; with HepG2 it was 6.6 µM. Moreover, the concentration for 50% growth inhibition (GI50) in the series with MCF7 was determined as 1.3 µM. In the series on HeLa, this compound came in with a CC50 of 90.6 µM. For the same compound, the outcome in the series on Bacillus subtilis, in the series with Staphylococcus aureus [2], in the series on Escherichia coli, in the series on Pseudomonas aeruginosa, in the series on Staphylococcus aureus [3] and with Enterococcus faecalis was inactive. For the same compound, the outcome (in the series on Mycolicibacterium vaccae; in series [4]; with Candida albicans; with Penicillium chrysogenum) was inactive.

The term GI50 denotes the concentration that inhibits growth by half. In general, CC50 refers to the concentration that lowers cell viability or growth by half. Higher therefore signals better tolerance by the cells.

Source of the values: ChEMBL document CHEMBL1221366, “Pitucamycin: structural merger of a phenoxazinone with an epoxyquinone antibiotic” (J Nat Prod, 2010).
